row,SMILES,melting point
1,N#Cc1ccc(NC(=O)c2ccc3ccccc3c2O)c(OC(F)(F)F)c1,178 °C
2,Cc1ccnc(-c2c(C)noc2C)c1OC1SCC(O)C(O)C1O (stereo not given),70 to 100 °C
3,COC(=O)c1ccc(CC(C)NCC(O)c2ccc(O)c(O)c2)cc1 (stereo not given),169 °C
4,CCCCN(CCCC)Cc1nc(-c2ncn3c2CN(C)C(=O)c2ccccc2-3)no1,105 to 110 °C
5,CCOC(=O)c1nn(Cc2ccc(OC)c(OC)c2)c2cc(OC)c(OC)cc12,138 to 141 °C
6,ClCc1coc(-c2sccc2Cl)n1,84 to 85 °C
7,CCCc1cn(CC(=O)O)nc1OCCCc1cn(-c2ccc(C(F)(F)F)cn2)nc1OCC,134 to 135 °C
8,O=c1[nH]c2cc(C(F)(F)F)ccc2n1-c1cc(C(F)(F)F)cc([N+](=O)[O-])c1O,> 360 °C
9,CSCC(=O)Nc1cc(SCC(C)C)ccc1[N+](=O)[O-],73 to 74 °C
10,C=CCSc1nnc(C(C)(C)C)[nH]1,127 to 130 °C
11,CCn1ncnc1COc1nn2c(-c3ccccc3F)nncc2c1-c1ccccc1,171 to 173 °C
12,COCc1ccn2nc(SCc3ccccc3)nc2n1,92 °C
13,C[C@@H]1CN(c2nccc(Oc3ccc(NC(=O)c4cc(F)cc(N5CCOCC5)c4)c4ccccc34)n2)C[C@H](C)O1,118 to 120 °C
14,S=c1nc(-c2ccncc2)[nH]n1Cc1ccccc1,160 to 162 °C
15,Clc1cccc2c1CCCC2c1c[nH]cn1 (stereo not given),165 to 169 °C
16,CC(=O)N1CCC(Oc2ccc(N3CCCC3)cc2)CC1,69 to 70 °C
17,OCC1(CO)CC2C=CC1C2 (stereo not given),110 °C
18,COC(=O)c1ccc2cc(Cl)ccc2c1,97 to 98 °C
19,O=C(Nc1ccc(-c2c[nH]c(=O)cn2)cc1)c1ccccc1,> 300 °C
20,COc1ccc(NC(=NC#N)NC(NC(=O)Cc2ccc(OC)c(OC)c2)C(C)(C)C)c(OC)n1 (stereo not given),162 to 163 °C
21,CCOC(=O)c1c(C(F)(F)F)nc(C(F)(F)Cl)c(C(=O)O)c1OCC,81 to 83 °C

row,SMILES,melting point
1,Cc1cc2c(cc1C(F)(F)F)NC(=O)CC(c1cccc(-n3nncc3CNC3CC3)c1)=N2,181 °C
2,COc1ccc(C(=O)OCc2ccc(C=O)cc2)cc1C(C)(C)C,75 to 76 °C
3,CCOC(=O)c1c(N2CCOCC2)c2ccc(C)nc2n(CC)c1=O,129 to 131 °C
4,CCOC(=O)CCCCOc1ccc2c(c1)CC1CC(=O)NC1=N2 (stereo not given),180 °C
5,Cc1c(SCCN)ccnc1CSc1nc2ccccc2[nH]1,158 to 160 °C
6,COCc1cc2c3ccccc3n(C)c(=O)n2n1,98 to 100 °C
7,COc1cc(OC)cc(-c2nc[nH]c2-c2ccc(OC(F)(F)F)c(N)c2)c1,182 to 184 °C
8,Cc1cc(-c2nc(CCl)co2)sc1Br,71 to 72 °C
9,COC(=O)[C@@H]1C[C@H](NS(C)(=O)=O)C(=O)[C@H]2[C@@]1(C)CC[C@H]1C(=O)O[C@H](c3ccoc3)C[C@]21C,262 to 265 °C
10,O=C(O)Cc1n[nH]c2c(=O)[nH]c3cc(Cl)ccc3c(=O)c12,297 to 300 °C
11,CC(C)(C)c1ccc(-c2nc3c4[nH]cnc4nc(CP(=O)(O)O)n3n2)cc1,270 °C
12,COc1cc([N+](=O)[O-])c(NCCCO)cc1O,149 °C
13,Cn1c(COc2ccc(CC3SC(=O)NC3=O)cc2)nc2cncnc21 (stereo not given),244 to 246 °C
14,CCCCCCC/C=C/C(=O)NC1CCCCC1,94 to 96 °C
15,Nc1ncnc2c1nc(Sc1cc3c(cc1Br)OCO3)n2CCCCCC(=O)NO,160 to 169 °C
16,CCC(=O)C(CCCOc1ccc(OCCCc2c(CC)n[nH]c2CC)cc1)C(=O)CC,135 to 136 °C
17,NSc1ccc([N+](=O)[O-])cc1C(Cl)(Cl)Cl,105 °C
18,O=C1CC[C@@H]2c3ccc(Cl)cc3CCC2N1 (stereo not given in full),242 °C
19,CC(C)(C)c1cc(SCCSCC(=O)O)cc(C(C)(C)C)c1O,86 °C
20,CCOC(=O)c1ccc(CN2CC[C@H](NC(=O)OC(C)(C)C)C2=O)c(C(F)(F)F)c1,93 to 95 °C
21,Cc1cc(S(N)(=O)=O)ccc1NC(=O)CNc1ccccc1,195 to 196 °C

# The next lines start with the values.
row,melting point,SMILES
1,179 to 182 °C,CC(C)c1cc(C(C)(C)CCP(=O)(O)O)cc(C(C)C)c1O
2,268 to 271 °C,O=C(O)c1ccc(CNS(=O)(=O)c2ccc(Br)cc2)cc1
3,235 to 237 °C,O=c1c2c([nH]n1-c1ccc(Cl)cc1)-c1ccccc1SC2
4,117 to 119 °C,CCOC(=O)c1c(OCC)cc(C=O)cc1OCC
5,127 to 130 °C,CC1=Cc2cc(-c3nnnn3C)ccc2OC1(C)C
6,278 °C,O=C(O)c1cnc(-c2nnn[nH]2)cc1C1CCCCC1
7,106 to 107 °C,CCC1C(=O)CCC(Cc2ccc(OC)cc2)(Cc2ccc(OC)cc2)C1C (stereo not given)
8,179 to 186 °C,CC(Cc1ccccc1)C1CC=C2C3=C(CCC21C)C1(C)CCC(O)C(C)(C)C1CC3 (stereo not given)
9,208 to 210 °C,N#Cc1c(N)nn(-c2c(Cl)cc(C(F)(F)F)cc2Cl)c1N
10,185 to 186 °C,CC1(C)SC(c2ccccc2C(=O)O)NC1C(=O)O (stereo not given)
11,69 to 70 °C,O=S(Sc1ccccc1)c1ccccc1 (stereo not given)
12,> 250 °C,CC(C)Cn1c(N)nc2c(N)nc3ccccc3c21
13,117 to 118 °C,OC(Cn1cncn1)(c1ccc(Cl)cc1)C(F)(F)F (stereo not given)
14,61 to 62 °C,Cc1cc(Br)c2nc(OCC(F)(F)F)ccc2c1
15,> 250 °C,CCc1nn2c(N3CCN(C)CC3)cc(N3CCOCC3)nc2c1S(=O)(=O)c1ccccc1
16,140 to 143 °C,CC(=O)C(=Cc1ccc(S(C)(=O)=O)c(F)c1)C(C)=O
17,109 to 112 °C,CNC(=O)c1ccccc1Nc1nc(Nc2cc3c(cc2OC)CCN(CCOC)CC3)ncc1Cl
18,188 °C,O=c1c(Oc2ccc(-c3ccncc3)cc2)c(-n2ccnc2)cnn1-c1ccc(Cl)cc1
19,92 to 93 °C,CN(CCO)Cc1cc(C(=O)c2ccccc2)cc(C2CCCCC2)c1O
20,188 to 190 °C,CCOC(=O)c1cnc(-c2cc3cccc(N)c3n2COC)s1
21,233 °C,CC1SC(=O)NN=C1c1ccc2c(c1)C(=Cc1ccccc1O)C(=O)N2 (stereo not given)

row,melting point,SMILES
1,187 °C,CCCCCc1c(C(=O)O)nn(-c2ccc(Cl)cc2Cl)c1-c1ccc(Cl)cc1
2,159 to 161 °C,c1cnc(C2CNCC(c3ncccn3)N2)nc1 (stereo not given)
3,123 to 124 °C,CCCNC(=O)N(Cc1ccccc1)NC(=O)OC(C)(C)C
4,191 to 192 °C,COc1cc(Nc2nccc(-c3cccc(O)c3)n2)cc(OC)c1OC
5,149 to 150 °C,CCCC1=C(O)C(C(=O)CC)C(=O)OC1=O (stereo not given)
6,114 °C,CCOP(=O)(Cc1cc(C(C)(C)C)c(O)c(C(C)(C)C)c1)OCC
7,200 to 201 °C,O=C(N[C@H](Cc1ccccc1C(F)(F)F)[C@@H](O)c1ccc(F)cc1)c1ccc(F)c2ccccc12 (racemic)
8,153 to 156 °C,CS(=O)(=O)c1ccc(-n2nc(CNC(=O)Nc3ccc(OC(F)(F)F)cc3)cc2-c2ccccc2)cc1
9,234 to 235 °C,CC(=O)c1cc2c(c(Cl)c1O)OC(C(O)=NO)C2 (stereo not given)
10,201 to 204 °C,O=C1c2ccccc2-c2c1c1ccccc1c(=O)n2CCO
11,72 to 75 °C,FC(F)(c1ccccc1)C(F)(F)c1cccc(Br)c1
12,171 to 172 °C,CC(=O)NC1CCc2c(n(C)c3ccccc23)C1 (stereo not given)
13,98 to 101 °C,C#Cc1ccc(C)cc1CC(=O)O
14,147 °C,CC(C)CCC(=O)OC1c2ccccc2C(=O)N1c1ccc2ccc(Cl)nc2n1 (stereo not given)
15,238 °C,Cn1cnnc1C(N)(c1ccc(I)cc1)c1ccc2c(c1)c(-c1cccc(Cl)c1)nc1nnnn12 (stereo not given)
16,213 °C,Nc1cc(OCC(CO)OCP(=O)(O)O)nc(N)n1 (racemic)
17,71 °C,CCOC(=O)c1cc(-c2ccc(Cl)cc2)cnc1C
18,209 to 212 °C,Cc1cc([N+](=O)[O-])c2[nH]ccc(=O)c2c1
19,146 to 147 °C,COc1ccc(-c2ccc(C#N)cc2)cc1C=O
20,261 to 262 °C,Cc1ccc(-c2csc(-c3ccc(C(=O)O)cc3)n2)cc1C
21,116 to 118 °C,Cc1ccc(O)cc1C=O

row,melting point,SMILES
1,98 to 102 °C,COc1nc2c(OCc3ccccc3)cccc2n1C
2,98 °C,CC(C)(C)OC(=O)NC(COCc1ccccc1)c1nc2c(C(F)(F)F)cccc2c(=O)o1 (stereo not given)
3,191 to 193 °C,CC(C)N1CCC(NC(=O)Nc2ccccc2CCc2cc(C(C)(C)C)c(O)c(C(C)(C)C)c2)CC1
4,184 °C,OC1CSC(Oc2cnc(-c3ccc(F)nc3)c(F)c2)C(O)C1O (stereo not given)
5,101 to 102 °C,CC(=O)SC(CC(=O)c1ccc(C)cc1C)C(=O)O (stereo not given)
6,222 °C,CCN(CC)C(=O)C=Cc1ccc(C2=C(c3ccc(O)cc3)CCc3cc(O)ccc32)cc1
7,202 to 205 °C,CC(=O)NC[C@H]1CN(c2ccc(C(=O)c3ccc[nH]3)cc2)C(=O)O1
8,85 to 89 °C,CC(=NO)c1ncc(C)nc1C
9,226 to 228 °C,S=c1[nH]nnn1CCN1CCOCC1
10,185 to 187 °C,CN[C@@H]1CN(c2nc3c(cc2F)c(=O)c(C(=O)O)cn3C(C)(C)C)[C@H]1C (relative stereo)
11,57 to 58 °C,CCSc1snc(OCOCC#CI)c1C#N
12,267 to 270 °C,Oc1ccc(-c2noc3c(Br)cc(O)cc23)cc1
13,216 °C,O=C(O)c1cnc(C(=O)O)c2ccccc12
14,192 °C,COc1ccc(N2CCN(c3ccc(N)cc3)CC2)cc1
15,168 to 170 °C,CCOC(=O)c1cc(C(=O)c2cccc(S(=O)(=O)F)c2)sc1N
16,78 °C,COc1cc(C)cc2c(Br)ccc(OC(C)C)c12
17,94 °C,O=c1c2ccccc2sc2ccc(SCCO)cc12
18,274 °C,N#CC(=Cc1ccc(O)c(O)c1)C(=O)NCCCNC(=O)C(C#N)=Cc1ccc(O)c(O)c1
19,105 to 106 °C,C=CCNC(=O)N(N(CCCl)S(C)(=O)=O)S(C)(=O)=O
20,220 to 222 °C,COc1ccc(-c2c(NCCc3cccc(C(F)(F)F)c3)c(=O)c2=O)cc1
21,102 to 117 °C,NC1=NC(c2ccc(OC(F)(F)F)cc2)(c2cccc(-c3cccnc3F)c2)C2=NOCCN12 (stereo not given)
